Results from patent US8999998B2, “Pyrazolopyrimidine JAK inhibitor compounds and methods” (Genentech, Inc., priority 2009, dated 2015).

Key:
Type in all cases: biochemical
[1] = molecular target: TYK2 kinase domain (Homo sapiens (Human), UniProt P29597); test: TYK2 inhibition assay (Caliper LabChip, isolated kinase domain); settings: 25 uM ATP, 1 nM TYK2; read-out: TYK2 enzymatic activity (Ki)
Description: (§1) The catalytically active kinase domain of human JAK1, JAK2, JAK3 or TYK2 was purified from extracts of SF9 insect cells infected with a recombinant baculovirus expression vector encoding the human JAK1, JAK2, JAK3 or TYK2 kinase domains (JAK1 amino acid residues N852-D1154 according to the numbering of GenBank sequence accession number P23458, JAK2 amino acid residues D812-G1132 according to the numbering of GenBank sequence accession number NP_004963.1; JAK3 amino acid residues S783-S1124 according to the numbering of GenBank sequence accession number P52333, and TYK2 amino acid residues N873-C1187 according to the numbering of GenBank sequence accession number P29597). The activity of the JAK1, JAK2, JAK3 or TYK2 kinase domains can be measured by a number of direct and indirect methods, including quantification of phosphorylation of peptide substrates derived from the human JAK3 protein (Saltzman et al., Biochem. Biophys. Res. Commun. 246:627-633 (2004)). The activity of the JAK1, JAK2, JAK3 or TYK2 kinase domains was measured in vitro by monitoring phosphorylation of JAK3 derived peptides using the Caliper LabChip technology (see Examples).
(§2) The activity of the isolated JAK1, JAK2 or TYK2 kinase domain was measured by monitoring phosphorylation of a peptide derived from JAK3 ([…] fluorescently labeled on the N-terminus with 5-carboxyfluorescein using the Caliper LabChip technology (Caliper Life Sciences, Hopkinton, Mass.). […] Reactions were incubated at 22° C. in 384-well polypropylene microtiter plates for 30 minutes and then stopped by addition of 25 uL of an EDTA containing solution (100 mM Hepes pH 7.2, 0.015% Brij-35, 150 mM EDTA), resulting in a final EDTA concentration of 50 mM. After termination of the kinase reaction, the proportion of phosphorylated product was determined as a fraction of total peptide substrate using the Caliper LabChip 3000 according to the manufacturer's specifications. Ki values were then determined using the Morrison tight binding model. Morrison, J. F., Biochim. Biophys. Acta. 185:269-296 (1969); William, J. W. and Morrison, J. F., Meth. Enzymol., 63:437-467 (1979).

[2] = molecular target: JAK2 kinase domain (Homo sapiens (Human), UniProt O60674); test: JAK2 inhibition assay (Caliper LabChip, isolated kinase domain); settings: 25 uM ATP, 0.2 nM JAK2; read-out: JAK2 enzymatic activity (Ki)
Description: as §1, §2

[3] = molecular target: JAK3 kinase domain (Homo sapiens (Human), UniProt P52333); test: JAK3 inhibition assay (Caliper LabChip, isolated kinase domain); settings: 5 uM ATP, 5 nM JAK3; read-out: JAK3 enzymatic activity (Ki)
Description: as §1, with “Previous studies have shown that the isolated kinase domains of human JAK1, JAK2, JAK3 or TYK2 phosphorylate peptide substrates in in vitro kinase assays (Saltzman et al., Biochem. Biophys. Res. Commun. 246:627-633 (2004)). The catalytically” for “The catalytically”
as §2, with “JAK3” for “JAK1, JAK2 or TYK2”

[4] = molecular target: JAK1 kinase domain (Homo sapiens (Human), UniProt P23458); test: JAK1 inhibition assay (Caliper LabChip, isolated kinase domain); settings: 25 uM ATP, 1.5 nM JAK1; read-out: JAK1 enzymatic activity (Ki)
Description: as §1, §2

Chain of TYK2 kinase domain (P29597 873-1187): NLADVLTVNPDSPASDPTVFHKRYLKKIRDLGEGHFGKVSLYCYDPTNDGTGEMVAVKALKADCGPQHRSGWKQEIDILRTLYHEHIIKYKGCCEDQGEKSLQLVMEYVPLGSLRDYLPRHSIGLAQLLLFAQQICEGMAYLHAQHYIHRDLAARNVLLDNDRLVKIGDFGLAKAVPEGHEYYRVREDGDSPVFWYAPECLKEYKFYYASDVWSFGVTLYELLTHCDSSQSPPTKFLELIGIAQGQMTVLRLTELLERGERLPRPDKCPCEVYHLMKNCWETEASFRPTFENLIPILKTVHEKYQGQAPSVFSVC
Chain of JAK3 kinase domain (P52333 783-1124): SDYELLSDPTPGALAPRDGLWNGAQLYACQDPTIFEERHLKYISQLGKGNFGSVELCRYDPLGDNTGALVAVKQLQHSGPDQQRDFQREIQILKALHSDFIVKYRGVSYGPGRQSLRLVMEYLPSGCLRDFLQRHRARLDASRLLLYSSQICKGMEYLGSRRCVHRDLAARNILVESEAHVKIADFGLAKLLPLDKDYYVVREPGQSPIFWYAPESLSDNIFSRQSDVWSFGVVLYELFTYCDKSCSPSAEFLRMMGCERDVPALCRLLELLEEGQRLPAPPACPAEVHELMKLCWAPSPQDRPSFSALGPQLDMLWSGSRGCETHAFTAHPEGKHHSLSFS
Chain of JAK2 kinase domain (O60674 812-1132): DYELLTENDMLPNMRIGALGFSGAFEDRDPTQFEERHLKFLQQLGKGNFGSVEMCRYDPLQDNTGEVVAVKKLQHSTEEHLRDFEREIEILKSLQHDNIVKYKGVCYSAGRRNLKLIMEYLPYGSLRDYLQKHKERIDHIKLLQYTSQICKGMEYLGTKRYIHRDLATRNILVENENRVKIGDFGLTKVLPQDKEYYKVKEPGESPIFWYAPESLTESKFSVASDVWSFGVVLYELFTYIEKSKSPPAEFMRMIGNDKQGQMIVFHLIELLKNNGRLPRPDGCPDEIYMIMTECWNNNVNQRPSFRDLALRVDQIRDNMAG
Chain of JAK1 kinase domain (P23458 852-1154): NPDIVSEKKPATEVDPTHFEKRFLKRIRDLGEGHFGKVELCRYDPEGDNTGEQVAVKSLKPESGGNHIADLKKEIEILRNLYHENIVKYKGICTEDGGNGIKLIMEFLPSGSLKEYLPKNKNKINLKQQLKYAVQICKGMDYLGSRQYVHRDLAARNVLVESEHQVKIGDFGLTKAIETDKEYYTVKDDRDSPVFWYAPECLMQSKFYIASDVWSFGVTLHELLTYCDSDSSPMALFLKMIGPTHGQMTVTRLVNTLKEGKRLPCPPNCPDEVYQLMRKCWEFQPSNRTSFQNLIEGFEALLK

Structure (SMILES)	Ki [1] [nM]	Ki [2] [nM]	Ki [3] [nM]	Ki [4] [nM]
COc1ccc(Cl)cc1-c1nc(C)sc1NC(=O)c1cnn2cccnc12 [Example 170, N-(4-(5-chloro-2-methoxyphenyl)-2-methylthiazol-5-yl)pyrazolo[1,5-a]pyrimidine-3-carboxamide]	2.1	0.4	13	0.7
O=C(Nc1c[nH]nc1-n1cc(Cl)ccc1=O)c1cnn2cccnc12 [Example 194, N-(3-(5-chloro-2-oxopyridin-1(2H)-yl)-1H-pyrazol-4-yl)pyrazolo[1,5-a]pyrimidine-3-carboxamide]	980	110	4100	775
COc1ccc(Cl)cc1-c1c(NC(=O)c2c(N)nn3cccnc23)cnn1CC(N)=O [Example 217, 2-amino-N-(1-(2-amino-2-oxoethyl)-5-(5-chloro-2-methoxyphenyl)-1H-pyrazol-4-yl)pyrazolo[1,5-a]pyrimidine-3-carboxamide]	2.3	0.5	5.5	2.1
COc1ccc(Cl)cc1-c1nn(CC(=O)N2CCCC2C)cc1NC(=O)c1cnn2cccnc12 (centres unmarked) [Example 283, N-(3-(5-chloro-2-methoxyphenyl)-1-(2-(2-methylpyrrolidin-1-yl)-2-oxoethyl)-1H-pyrazol-4-yl)pyrazolo[1,5-a]pyrimidine-3-carboxamide]	9.1	3.1	270	0.7
COc1ccc(Cl)cc1-c1nn(CC(=O)N2CC=CCC2)cc1NC(=O)c1cnn2cccnc12 [Example 300, N-(3-(5-chloro-2-methoxyphenyl)-1-(2-(5,6-dihydropyridin-1(2H)-yl)-2-oxoethyl)-1H-pyrazol-4-yl)pyrazolo[1,5-a]pyrimidine-3-carboxamide]	10	2.5	170	0.5
COc1ccc(C#N)cc1-c1nn(CC2(O)CCCC2)cc1NC(=O)c1cnn2cccnc12 [Example 359, N-(3-(5-cyano-2-methoxyphenyl)-1-((1-hydroxycyclopentyl)methyl)-1H-pyrazol-4-yl)pyrazolo[1,5-a]pyrimidine-3-carboxamide]	46	4.2	690	1
COc1ccc(F)cc1-c1nn(CC2(O)CCOCC2)cc1NC(=O)c1cnn2cccnc12 [Example 364, N-(3-(5-fluoro-2-methoxyphenyl)-1-((4-hydroxytetrahydro-2H-pyran-4-yl)methyl)-1H-pyrazol-4-yl)pyrazolo[1,5-a]pyrimidine-3-carboxamide]	47	6.2	710	2.3
CC1CCCCN1c1nn(CC(C)(C)O)cc1NC(=O)c1cnn2cccnc12 (centres unmarked) [Example 379, N-(1-(2-hydroxy-2-methylpropyl)-3-(2-methylpiperidin-1-yl)-1H-pyrazol-4-yl)pyrazolo[1,5-a]pyrimidine-3-carboxamide]	410	26.3	240	85.9
N#CC1CCN(c2n[nH]cc2NC(=O)c2cnn3cccnc23)CC1 [Example 395, N-(3-(4-cyanopiperidin-1-yl)-1H-pyrazol-4-yl)pyrazolo[1,5-a]pyrimidine-3-carboxamide]	230	31.3	390	176
COc1ccc(Cl)cc1-c1nn(CC(O)(C(F)(F)F)C(F)(F)F)cc1NC(=O)c1cnn2cccnc12 [Example 432, N-(3-(5-chloro-2-methoxyphenyl)-1-(3,3,3-trifluoro-2-hydroxy-2-(trifluoromethyl)propyl)-1H-pyrazol-4-yl)pyrazolo[1,5-a]pyrimidine-3-carboxamide]	31	5.7	570	1.5
COc1ncc(Cl)cc1-c1nn(CC(=O)N(C)C)cc1NC(=O)c1cnn2cccnc12 [Example 499, N-(3-(5-chloro-2-methoxypyridin-3-yl)-1-(2-(dimethylamino)-2-oxoethyl)-1H-pyrazol-4-yl)pyrazolo[1,5-a]pyrimidine-3-carboxamide]	14	5.8	780	1.6
